Laboratory results from PubChem BioAssay (NCI).
Where “and” joins values, the source holds several entries; their conditions need not be identical. Equal entries are not always repeated.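 The compound was tested at five concentrations on cells cultured in 96-well plates, with a 48-hour exposure period. Abbreviation: GI50, concentration required for 50% inhibition of growth. TGI marks complete inhibition of growth.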

Assays:
Test in all cases: NCI tumour cell line growth inhibition, 48 h
[1] = tested on: 786-0 renal
[2] = tested on: BT-549 breast
[3] = tested on: DMS 114 small cell lung
[4] = tested on: HOP-62 NSCLC
[5] = tested on: HOP-92 NSCLC
[6] = tested on: MCF7 breast
[7] = tested on: P388/ADR leukemia
[8] = tested on: SF-268 CNS
[9] = tested on: SK-MEL-2 melanoma
[10] = tested on: SN12C renal
[11] = tested on: SNB-78 CNS
[12] = tested on: SR leukemia
[13] = tested on: T-47D breast
[14] = tested on: UACC-257 melanoma
[15] = tested on: LXFL 529 NSCLC
[16] = tested on: NCI-H23 lung
[17] = tested on: RXF-631 renal
[18] = tested on: SF-539 CNS

Row | SMILES | GI50 [1] [µM] | TGI [1] | GI50 [2] [µM] | TGI [2] | TGI [3] | GI50 [4] | TGI [4] | GI50 [5] [µM] | TGI [5] | GI50 [6] | TGI [7] [µM] | GI50 [8] [µM] | TGI [8] | GI50 [9] [µM] | TGI [9] | TGI [10] | TGI [12] | GI50 [13] | TGI [13] | GI50 [14] | other results
1 | C[C@@]1(CO)[C@H](O)CC[C@@]2(C)[C@H]1CC[C@H]1C[C@@H]3C[C@@]12CC[C@@]3(O)COC(=O)CN | 1.12 | 60.8 µM and 108 µM | 62.7 | > 241 µM | > 500 µM and 170 µM | 4.69 µM and 23.3 µM | > 78.7 µM and > 500 µM and 147 µM | 325 | 83.4 µM and > 500 µM and 137 µM | 3.17 µM and 21.2 µM and 3.87 µM | 126 | 65.6 | > 500 µM and 242 µM | > 500 | > 89.6 µM and > 500 µM and 177 µM | 65.7 µM and > 500 µM and 183 µM | 46.5 µM and 47.4 µM | 41.9 µM | > 79.1 µM and 190 µM | 133 µM and 99.4 µM | GI50 [11]: > 500 µM; TGI [11]: > 500 µM; GI50 [12]: 1.66 µM; TGI [14]: > 72.2 µM and > 500 µM and 239 µM
2 | C1CN1c1nc(N2CC2)nc(N2CC2)n1 | 1.83 | 17 µM and 16 µM | 8.42 | 45.1 µM and 19.1 µM | 23.2 µM | 5.92 µM | 15.7 µM and 30.1 µM | 8.04 | 35.9 µM and 17.7 µM | 1.39 µM | 16.7 | 1.45 | 37.5 µM and 14.8 µM | 19.8 | 36.4 µM and 31.3 µM | 45.3 µM and 41.2 µM | 19.6 µM | 8.23 µM and 1.24 µM | 76.6 µM and 19.6 µM | 13.3 µM | TGI [15]: 29.7 µM; TGI [6]: 27.1 µM and 28.9 µM; GI50 [16]: 5.55 µM; TGI [16]: 20 µM and 15 µM; TGI [17]: 42.3 µM; GI50 [18]: 1.78 µM; TGI [18]: 12.8 µM and 8.65 µM; GI50 [10]: 4.32 µM; TGI [14]: 31.9 µM and 23 µM
